Here are results for 40 molecules from US10562891B2, “Quinazolinones as PARP14 inhibitors” (Ribon Therapeutics Inc., priority 2017, dated 2020).

In the experiment the target is catalytic domain of human PARP14 (Homo sapiens (Human), UniProt Q460N5). The experiment in a line: Enzymatic assay for inhibition of PARP14 (DELFIA, auto-modification with biotin-NAD). It counts as biochemical. The conditions noted are these: auto-modification of PARP14 by biotin-NAD, 50 nM PARP14, 3 μM biotin-NAD. The method, boiled down:
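His-TEV-tagged PARP14 catalytic domain (50 nM) preincubated with compound 30 min at 25 °C, then auto-modified with 3 μM biotin-NAD for 3 h at 25 °C in HEPES pH 8 buffer with DTT. IC50 from 4-parameter fit, rucaparib and DMSO as controls.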

Structures are written as SMILES. Where a name gives a salt, the structure may show the parent alone.

Sequence of catalytic domain of human PARP14 (Q460N5 1611-1801): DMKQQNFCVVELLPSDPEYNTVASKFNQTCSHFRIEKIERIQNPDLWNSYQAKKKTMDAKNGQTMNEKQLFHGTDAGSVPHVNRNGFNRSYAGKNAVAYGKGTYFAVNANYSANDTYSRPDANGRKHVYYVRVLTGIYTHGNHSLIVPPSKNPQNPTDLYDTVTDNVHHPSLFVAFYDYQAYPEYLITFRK

Consider `Nc1cnn(-c2ccc3c(=O)[nH]c(CSC4CCOCC4)nc3c2)c1` [Example 93, 7-(4-Amino-1H-pyrazol-1-yl)-2-(((tetrahydro-2H-pyran-4-yl)thio)methyl) quinazolin-4(3H)-one Trifluoroacetate], for which the IC50 was > 10 µM.

In the case of `Cc1ccc(F)c2c(=O)[nH]c(CSC3CCC(O)CC3)nc12` (stereo not shown) [Example 56, 5-Fluoro-2-(((4-hydroxycyclohexyl)thio)methyl)-8-methylquinazolin-4(3H)-one], the IC50 is < 1 µM.

For the molecule `CN(C)[C@H]1CC[C@H](SCc2nc3cc(OCC4CC4)cc(F)c3c(=O)[nH]2)CC1` [Example 404], the IC50 is < 1 µM.

Take `Cc1cc(NC2CCCC2)cc2nc(CSC3CCOCC3)[nH]c(=O)c12` [Example 203, 7-(Cyclopentylamino)-5-methyl-2-(((tetrahydro-2H-pyran-4-yl)thio)methyl) quinazolin-4(3H)-one]: the IC50 was < 1 µM.

Turning to `CC(F)(F)CN1CCC(SCc2nc3cc(NC4CCCC4)ccc3c(=O)[nH]2)CC1` [Example 264, 7-(Cyclopentylamino)-2-(((1-(2,2-difluoropropyl)piperidin-4-yl)thio)methyl)quinazolin-4(3H)-one], the concentration for half-maximal inhibition (IC50) is < 1 µM.

Take `CN1CCN([C@H]2CC[C@H](Nc3cc4nc(CSC5CCOCC5)[nH]c(=O)c4c(F)c3F)CC2)CC1` [Example 346]: the IC50 is < 1 µM.

Take `N#CCN1CCC(SCc2nc3cc(NC4CCCC4)cc(F)c3c(=O)[nH]2)CC1` [Example 285, 2-(4-(((7-(Cyclopentylamino)-5-fluoro-4-oxo-3,4-dihydroquinazolin-2-yl)methyl)thio)piperidin-1-yl)acetonitrile]: the IC50 is < 1 µM.

As to `CC(C)(C)COc1cc(F)c2c(=O)[nH]c(CSC3CCOCC3)nc2c1` [Example 416], the IC50 is < 1 µM.

On to `NC[C@]1(F)CC[C@@H](SCc2nc3cc(NC4CCCC4)cc(F)c3c(=O)[nH]2)CC1` [Example 243, 2-(((trans-4-(Aminomethyl)-4-fluorocyclohexyl)thio)methyl)-7-(cyclopentylamino)-5-fluoroquinazolin-4(3H)-one Trifluoroacetate], for which the IC50 was < 1 µM.

With `CC(=O)N1CCC(SCc2nc3cc(N[C@@H]4CCCN(S(C)(=O)=O)C4)ccc3c(=O)[nH]2)CC1` [Example 268, (R)-2-(((1-acetylpiperidin-4-yl)thio)methyl)-7-((1-(methylsulfonyl)piperidin-3-yl)amino)quinazolin-4(3H)-one], the IC50 is < 1 µM.

As for `O=c1[nH]c(CS[C@H]2CCN[C@H](C(F)(F)F)C2)nc2cc(NC3CCCC3)cc(F)c12` (relative stereo) [Example 227, 7-(Cyclopentylamino)-5-fluoro-2-(((trans-2-(trifluoromethyl)piperidin-4-yl)thio)methyl)quinazolin-4(3H)-one bis Trifluoroacetate], the IC50 lay in the range of 1 to 10 µM.

Turning to `O=c1[nH]c(CSC2CCOCC2)nc2cc(OC[C@H]3CCCO3)cc(F)c12` [Example 321a, (R)-5-Fluoro-2-(((tetrahydro-2H-pyran-4-yl)thio)methyl)-7-((tetrahydrofuran-2-yl)methoxy)quinazolin-4(3H)-one], the IC50 was < 1 µM.

Regarding `O=c1[nH]c(CSC2CCNCC2)nc2cc(NCC3CC3)cc(F)c12` [Example 265, 7-((Cyclopropylmethyl)amino)-5-fluoro-2-((piperidin-4-ylthio)methyl)quinazolin-4(3H)-one], the IC50 was < 1 µM.

With `O=c1[nH]c(CS[C@H]2C[C@@H](O)C2)nc2cc(OCC3CCOCC3)cc(F)c12` [Example 405], the IC50 is < 1 µM.

With `O=c1[nH]c(CSC2CCOCC2)nc2nc(NC3CCCC3)ccc12` [Example 186, 7-(cyclopentylamino)-2-(((tetrahydro-2H-pyran-4-yl)thio)methyl)pyrido[2,3-d]pyrimidin-4(3H)-one], the IC50 is < 1 µM.

As for `CC(=O)N[C@H]1C[C@H](SCc2nc3cc(OCC4CCOCC4)cc(F)c3c(=O)[nH]2)C1` [Example 393], the IC50 is < 1 µM.

On to `O=c1[nH]c(CSC2CCS(=O)(=O)CC2)nc2cc(OCC3CCC3)cc(F)c12` [Example 304, 7-(cyclobutylmethoxy)-2-(((1,1-dioxidotetrahydro-2H-thiopyran-4-yl)thio)methyl)-5-fluoroquinazolin-4(3H)-one], for which the IC50 was < 1 µM.

Take `O=c1[nH]c(CSC2CCOCC2)nc2cc(NC3CCN(CC(F)(F)F)CC3)cc(F)c12` [Example 288, 5-Fluoro-2-(((tetrahydro-2H-pyran-4-yl)thio)methyl)-7-((1-(2,2,2-trifluoroethyl)piperidin-4-yl)amino)quinazolin-4(3H)-one]: the IC50 is < 1 µM.

Consider `Cc1cccc2c(=O)[nH]c(CS[C@H]3CC[C@@H](O)CC3)nc12` [Example 24, 2-((((cis)-4-Hydroxycyclohexyl)thio)methyl)-8-methylquinazolin-4(3H)-one], for which the IC50 was 1 to 10 µM.

As for `Cc1ccncc1Nc1ccc2c(=O)[nH]c(CSC3CCOCC3)nc2c1` [Example 91, 7-((4-Methylpyridin-3-yl)amino)-2-(((tetrahydro-2H-pyran-4-yl)thio)methyl)quinazolin-4(3H)-one], the IC50 was 1 to 10 µM.

As for `Cc1cccc2c(=O)[nH]c(CSC3CCN(Cc4ccc(C#N)cc4)CC3)nc12` [Example 141, 4-((4-(((8-Methyl-4-oxo-3,4-dihydroquinazolin-2-yl)methyl)thio)piperidin-1-yl)methyl)benzonitrile trifluoroacetate], the IC50 lay in the range of 1 to 10 µM.

Take `O=c1[nH]c(CSC2CCN(C3CS(=O)(=O)C3)CC2)nc2cc(NC3CCCC3)cc(F)c12` [Example 273, 7-(Cyclopentylamino)-2-(((1-(1,1-dioxidothietan-3-yl)piperidin-4-yl)thio)methyl)-5-fluoroquinazolin-4(3H)-one]: the IC50 is < 1 µM.

`O=c1[nH]c(CSC2CCOCC2)nc2cc(OC[C@H]3CNC[C@H]3F)cc(F)c12` (relative stereo) [Example 371]: the IC50 is < 1 µM.

For the molecule `CO[C@H]1C[C@@H](Nc2cc3nc(CS[C@H]4CC[C@](C)(O)CC4)[nH]c(=O)c3c(F)c2F)C1` [Example 374], the IC50 was < 1 µM.

For the molecule `O=c1[nH]c(CSC2CCNCC2)nc2cc(NC3CCC3)ccc12` [Example 200, 7-(cyclobutylamino)-2-((piperidin-4-ylthio)methyl)quinazolin-4(3H)-one], the IC50 is < 1 µM.

Regarding `O=c1[nH]c(CS[C@H]2CC[C@H](OC(F)(F)F)CC2)nc2cc(OCC3CCOCC3)cc(F)c12` [Example 375], the IC50 is < 1 µM.

`O=c1[nH]c(CSC2CCN(CC(F)(F)F)CC2)nc2cc(NC3CCCC3)ccc12` [Example 254, 7-(Cyclopentylamino)-2-(((1-(2,2,2-trifluoroethyl)piperidin-4-yl)thio)methyl)quinazolin-4(3H)-one]: the concentration for half-maximal inhibition (IC50) is < 1 µM.

For the molecule `O=c1[nH]c(CSC2CCOCC2)nc2cc(NC3CCOC3)ccc12` (stereo not shown) [Example 121, 2-(((Tetrahydro-2H-pyran-4-yl)thio)methyl)-7-((tetrahydrofuran-3-yl)amino)quinazolin-4(3H)-one], the IC50 was < 1 µM.

Take `Cc1cccc2c(=O)[nH]c(CSC3CCCNCC3)nc12` (stereo not shown) [Example 20, 2-((Azepan-4-ylthio)methyl)-8-methylquinazolin-4(3H)-one Trifluoroacetate]: the IC50 was < 1 µM.

`Nc1ccc2c(=O)[nH]c(CSC3CCOCC3)nc2c1` [Example 74, 7-Amino-2-(((tetrahydro-2H-pyran-4-yl)thio)methyl)quinazolin-4(3H)-one]: the IC50 is > 10 µM.

Consider `O=c1[nH]c(CSC2CCNCC2)nc2cc(NCC3CCC3)cc(F)c12` [Example 261, 7-((Cyclobutylmethyl)amino)-5-fluoro-2-((piperidin-4-ylthio)methyl)quinazolin-4(3H)-one], for which the IC50 is < 1 µM.

As to `O=c1[nH]c(CSC2CCNCC2)nc2cc(NC3CCCC3)ccc12` [Example 179, 7-(cyclopentylamino)-2-((piperidin-4-ylthio)methyl)quinazolin-4(3H)-one], the IC50 was < 1 µM.

For the molecule `CN1CC[C@@H](COc2cc(F)c3c(=O)[nH]c(CSC4CCOCC4)nc3c2)[C@@H](F)C1` (relative stereo) [Example 388], the IC50 is < 1 µM.

`O=c1[nH]c(CS[C@H]2CC[C@H](O)CC2)nc2cc(F)ccc12` [Example 46, 7-Fluoro-2-((((trans)-4-hydroxycyclohexyl)thio)methyl)quinazolin-4(3H)-one] came in with an IC50 of 1 to 10 µM.

As for `CO[C@H]1C[C@@H](Nc2cc3nc(CS[C@H]4CC[C@H](O)CC4)[nH]c(=O)c3c(F)c2F)C1` [Example 363], the IC50 is < 1 µM.

For the molecule `O=c1[nH]c(CS[C@H]2CC[C@H](O)CC2)nc2cc(NC3CCCC3)c(F)c(F)c12` [Example 313, 7-(Cyclopentylamino)-5,6-difluoro-2-(((trans-4-hydroxycyclohexyl)thio)methyl)quinazolin-4(3H)-one], the IC50 was < 1 µM.

For `Cc1cc(OCC2CCC2)cc2nc(CSC3CCOCC3)[nH]c(=O)c12` [Example 237, 7-(Cyclobutylmethoxy)-5-methyl-2-(((tetrahydro-2H-pyran-4-yl)thio)methyl)quinazolin-4(3H)-one], the IC50 was < 1 µM.

In the case of `O=c1[nH]c(CS[C@H]2CC[C@H](O)CC2)nc2cc(OCC3CCCC3)cc(F)c12` [Example 314, 7-(Cyclopentylmethoxy)-5-fluoro-2-(((trans-4-hydroxycyclohexyl)thio)methyl)quinazolin-4(3H)-one], the IC50 is < 1 µM.

As for `O=c1[nH]c(CSC2CCOCC2)nc2cc(NC3CCCC3)cnc12` [Example 188, 7-(cyclopentylamino)-2-(((tetrahydro-2H-pyran-4-yl)thio)methyl)pyrido[3,2-d]pyrimidin-4(3H)-one], the IC50 is > 10 µM.

As to `O=c1[nH]c(CSC2CCOCC2)nc2cc(OCC3CCN(CC(F)F)CC3)cc(F)c12` [Example 300, 7-((1-(2,2-Difluoroethyl)piperidin-4-yl)methoxy)-5-fluoro-2-(((tetrahydro-2H-pyran-4-yl)thio)methyl)quinazolin-4(3H)-one], the IC50 is < 1 µM.
